How the values were obtained:
Assay type in all cases: in vivo, mouse
PACAP−/− mice [1] = experiment: Catalepsy in the bar test after haloperidol; settings: haloperidol 0.2 and 2 mg/kg intraperitoneally; PACAP−/− mice compared with wild-type mice
Protocol: (§1) Motor activity was quantified using an automated video-tracking system, the video image motion analyzer AXIS-90 (Neuroscience, Inc., Tokyo, Japan). A computer program was used to overlay grid lines defining 25 separate regions within a circular open field (60 cm in diameter, 30 cm deep, illuminated with white light, 100 lux). Paths taken by each mouse were stored permanently as x-y coordinate sequences, and parameters indicative of locomotor activity were assessed. Vertical activity (rearing and jumping) were also scored. In the haloperidol study, the drug was injected intraperitoneally 20 min prior to monitoring locomotor activity, which was measured for 90 min by another activity-monitoring system, Supermex (multi-channel system; Muromachi Kikai Co., Ltd., Tokyo, Japan). Subsequently, the same mice were tested for catalepsy in the bar test as previously described in Boulay, D., Depoortere, R., Oblin, A., Sanger, D. J., Schoemaker, H. & Perrault, G. (2000) Eur. J. Pharmacol. 391, 63-73.
(§2) Effects of haloperidol on locomotor activity. (A) PACAP+/+and PACAP−/− mice (n =6-7) were injected intraperitoneally with 0.2 and 2 mg/kg haloperidol or vehicle (0.5% carboxymethyl cellulose sodium) and 20 min later placed in the open field for automated measurement of locomotor parameters over a 90 min test period. (B) Subsequently, each mouse was tested for catalepsy in the bar test. […]

PACAP−/− mice [2] = experiment: Effect of haloperidol on locomotor hyperactivity in the open field; settings: haloperidol 0.2 mg/kg intraperitoneally, 20 min before 90 min test, versus vehicle
Protocol: as §1, §2

wild-type mice = experiment: Effect of haloperidol on locomotor activity in the open field; settings: haloperidol 0.2 mg/kg intraperitoneally, 20 min before 90 min test, versus vehicle
Protocol: as §1, §2

O=C(CCCN1CCC(O)(c2ccc(Cl)cc2)CC1)c1ccc(F)cc1 [Haloperidol, haloperidol]
cataleptogenic effect (bar test) (PACAP−/− mice [1]): quite similar to that in wild-type mice
reduction of hyperactivity (total locomotor activity) (PACAP−/− mice [2]): 65±10 % reduction
impairment of locomotor activity (total activity) (wild-type mice): 43±21 % reduction
